Measured values published in patent EP4768499A1, “MACROCYCLIC PEPTIDE COMPOUND HAVING CELL MEMBRANE PERMEABILITY AND METABOLIC STABILITY, AND LIBRARY CONTAINING SAME” (Chugai Seiyaku Kabushiki Kaisha, priority 2023, dated 2025).
Starred links: 1 amine or outer side, 2 acyl side, 3 side chain; linkers in the order of their positions; H or OH if unused. Positions of bridges follow the written chain, without caps; N, C: chain ends. Non-standard residues stand in square brackets, D forms with d. Residues, ends and D or L forms follow the SMILES beside them. *: point of attachment. NMedβ3hAla = C[C@H](CC(=O)[*:2])N(C)[*:1]; NMeF = CN[C@@H](Cc1ccccc1)C(=O)O; NMeGABA = CN(CCCC(=O)[*:2])[*:1]; NMeI = CC[C@H](C)[C@H](NC)C(=O)O; NMeT = CN[C@H](C(=O)O)[C@@H](C)O; NMeβAla = CN(CCC(=O)[*:2])[*:1]; NMeD = CN[C@@H](CC(=O)O)C(=O)O; NMeL = CN[C@@H](CC(C)C)C(=O)O; NMeV = CN[C@H](C(=O)O)C(C)C; d(β3hA) = C[C@@H](N)CC(=O)O; NMeAbu = CC[C@H](NC)C(=O)O; NMeA = CN[C@@H](C)C(=O)O; Piperidide = C1CCN(*)CC1; dNMeA = CN[C@H](C)C(=O)O; Abu = CC[C@H](N)C(=O)O; Sar = CNCC(=O)O; tBu = CC(C)(C)*

Experiments:
Caco-2 cells = test: Membrane permeability test using Caco-2 cells with preincubation; assay type: in vitro ADME; settings: Caco-2 cells, preincubation 20 to 24 hours; apical FaSSIF/HBSS 1% DMSO pH 6.0, basal HBSS 4% BSA pH 7.4; basal sample at 180 minutes
[1] = as above; assay type: in vitro ADME; settings: Caco-2; preincubation 20 to 24 hours; Apical FaSSIF/HBSS pH 6.0, Basal HBSS 4% BSA pH 7.4; 180 minutes; read-out: Caco2 Papp
[2] = Metabolic stability test: liver microsomal stability assay; assay type: in vitro ADME, mouse; settings: mouse liver microsomes 0.5 mg protein/mL, compound 1 µM; for microsomal CLint at 1 µM: male, pH 7.4, presence of NADPH, read-out: Mouse Hepatic Microsome CLh,int NADPH(+); for Mouse Hepatic Microsome CLh,int NADPH(-): absence of NADPH

Compound	Caco2 Papp (10^-6 cm/sec) (Caco-2 cells)	Papp A→B [1]	microsomal CLint at 1 µM [2]	Mouse Hepatic Microsome CLh,int NADPH(-) [2]
CC(C)C[C@@H]1NC(=O)[C@@H]2CCCN2C(=O)[C@H](C(C)C)N(C)C(=O)[C@H](C)NC(=O)[C@H](CC(C)C)N(C)C(=O)[C@@H](C(C)C)NC(=O)C[C@@H](C(=O)N2CCCCC2)NC(=O)[C@H](C(C)C)N(C)C(=O)[C@H](C)NC(=O)[C@H](CC(C)C)N(C)C(=O)[C@H](C(C)C)NC(=O)[C@H](COC(C)(C)C)NC(=O)[C@H](CC(C)C)N(C)C(=O)[C@H](Cc2ccccc2)N(C)C1=O [pd014] ([dV][NMeL]A[NMeV]PL[NMeF][NMeL]S(tBu)V[NMeL]A[NMeV]D-Piperidide; lactam N-14)	<0.11 10^-6 cm/sec	< 0.11 ×10⁻⁶ cm/s	31.1 µL/min/mg	33.0 µL/min/mg Protein
CC[C@H](C)[C@@H]1NC(=O)[C@H](CC(C)C)N(C)C(=O)[C@H](CC(C)C)NC(=O)CCN(C)C(=O)C[C@@H](C(=O)N2CCCCC2)N(C)C(=O)[C@H](CC(C)C)N(C)C(=O)[C@H](C)N(C)C(=O)[C@H]([C@@H](C)O)N(C)C(=O)[C@H](CC(C)C)N(C)C(=O)[C@H](COC(C)(C)C)NC(=O)[C@H](Cc2ccccc2)N(C)C(=O)[C@H](CC(C)C)N(C)C(=O)[C@H](Cc2ccccc2)N(C)C1=O [pd166] ([NMeβAla]L[NMeL]I[NMeF][NMeL][NMeF]S(tBu)[NMeL][NMeT][NMeA][NMeL][NMeD]-Piperidide; lactam N-13)	0.13 10^-6 cm/sec	0.13 ×10⁻⁶ cm/s	32.4 µL/min/mg	34.0 µL/min/mg Protein
CC[C@@H]1NC(=O)[C@H](Cc2ccccc2)N(C)C(=O)[C@@H]2CCCN2C(=O)[C@H](CC(C)C)N(C)C(=O)[C@H](C(C)C)NC(=O)[C@H](CC(C)C)N(C)C(=O)[C@H]([C@@H](C)O)NC(=O)[C@H](Cc2ccccc2)N(C)C(=O)CN(C)C(=O)C[C@@H](C)N(C)C(=O)[C@H](C(C)C)NC(=O)[C@H](COC(C)(C)C)NC(=O)[C@H](C)N(C)C1=O [pd146] (cyclo([Abu][NMeA]S(tBu)V[NMedβ3hAla][Sar][NMeF]T[NMeL]V[NMeL]P[NMeF]))	0.20 10^-6 cm/sec	0.2 ×10⁻⁶ cm/s	20.3 µL/min/mg	14.1 µL/min/mg Protein
CC[C@H](C)[C@@H]1NC(=O)[C@H]([C@@H](C)CC)N(C)C(=O)[C@@H](C)NC(=O)C[C@@H](C(=O)N2CCCCC2)N(C)C(=O)[C@H](Cc2ccccc2)N(C)C(=O)[C@H](C(C)C)NC(=O)[C@H](C)N(C)C(=O)[C@H](CC(C)C)N(C)C(=O)[C@H](C)NC(=O)CN(C)C(=O)[C@H](CC(C)C)N(C)C(=O)[C@H](C)N(C)C(=O)[C@H](Cc2ccccc2)N(C)C1=O [pd153] ([dA][NMeI]I[NMeF][NMeA][NMeL][Sar]A[NMeL][NMeA]V[NMeF][NMeD]-Piperidide; lactam N-13)	0.20 10^-6 cm/sec	0.2 ×10⁻⁶ cm/s	15.1 µL/min/mg	26.0 µL/min/mg Protein
CC[C@H](C)[C@@H]1NC(=O)[C@@H]2CCCN2C(=O)[C@H](CC(C)C)N(C)C(=O)[C@H](Cc2ccccc2)N(C)C(=O)[C@H]([C@@H](C)CC)N(C)C(=O)[C@H]([C@@H](C)O)NC(=O)[C@H](Cc2ccccc2)N(C)C(=O)[C@H](CC)N(C)C(=O)[C@H](C(C)C)NC(=O)[C@H](CC)N(C)C(=O)[C@H](CC(C)C)N(C)C(=O)[C@H](C)N(C)C(=O)C[C@@H](C(=O)N2CCCCC2)NC(=O)[C@H](C(C)C)N(C)C1=O [pd002] ([NMeA][NMeL][NMeAbu]V[NMeAbu][NMeF]T[NMeI][NMeF][NMeL]PI[NMeV]D-Piperidide; lactam N-14)	0.39 10^-6 cm/sec	0.39 ×10⁻⁶ cm/s	34.2 µL/min/mg	30.1 µL/min/mg Protein
CC[C@H](C)[C@H]1C(=O)N(C)[C@@H](CC(C)C)C(=O)N[C@H](C(=O)N2CCCCC2)CC(=O)N(C)CCCC(=O)N[C@@H](CC(C)C)C(=O)N(C)[C@@H](CC(C)C)C(=O)N(C)[C@@H](C)C(=O)N(C)[C@@H](Cc2ccccc2)C(=O)N[C@@H](C)C(=O)N(C)[C@@H](Cc2ccccc2)C(=O)N(C)[C@@H](CC)C(=O)N(C)[C@@H](CC(C)C)C(=O)N[C@@H]([C@@H](C)O)C(=O)N(C)[C@@H](C)C(=O)N1C [pd048] ([NMeGABA]L[NMeL][NMeA][NMeF]A[NMeF][NMeAbu][NMeL]T[NMeA][NMeI][NMeL]D-Piperidide; lactam N-14)	0.28 10^-6 cm/sec	0.28 ×10⁻⁶ cm/s	30.2 µL/min/mg	20.7 µL/min/mg Protein
CC[C@H](C)[C@@H]1NC(=O)[C@H](CC(C)C)N(C)C(=O)CN(C)C(=O)C[C@@H](C(=O)N2CCCCC2)NC(=O)[C@H](C)N(C)C(=O)CNC(=O)[C@H](C(C)C)N(C)C(=O)[C@H](C)N(C)C(=O)[C@H](Cc2ccccc2)N(C)C(=O)[C@H](CC(C)C)NC(=O)[C@H](Cc2ccccc2)N(C)C(=O)[C@H]([C@@H](C)O)NC(=O)[C@H](CC(C)C)N(C)C1=O [pd115] ([Sar][NMeL]I[NMeL]T[NMeF]L[NMeF][NMeA][NMeV]G[NMeA]D-Piperidide; lactam N-13)	0.09 10^-6 cm/sec	0.09 ×10⁻⁶ cm/s	24.9 µL/min/mg	12.3 µL/min/mg Protein
CC[C@@H]1NC(=O)[C@H](CC(C)C)N(C)C(=O)[C@H]([C@@H](C)CC)NC(=O)CN(C)C(=O)C[C@@H](C)NC(=O)[C@H](C(C)C)N(C)C(=O)[C@H](COC(C)(C)C)NC(=O)[C@H](CC(C)C)N(C)C(=O)[C@H](C)NC(=O)[C@H](Cc2ccccc2)N(C)C(=O)[C@H](CC(C)C)NC(=O)CN(C)C(=O)[C@H]([C@@H](C)O)NC(=O)[C@H](CC(C)C)N(C)C1=O [pd010] (cyclo(A[NMeL]S(tBu)[NMeV][d(β3hA)][Sar]I[NMeL][Abu][NMeL]T[Sar]L[NMeF]))	0.72 10^-6 cm/sec	0.72 ×10⁻⁶ cm/s	59.7 µL/min/mg	27.8 µL/min/mg Protein
CC[C@@H]1NC(=O)[C@H](C(C)C)N(C)C(=O)[C@H](C)N(C)C(=O)[C@H](C(C)C)N(C)C(=O)[C@H](CC)N(C)C(=O)[C@H](Cc2ccccc2)N(C)C(=O)[C@H]([C@@H](C)O)N(C)C(=O)CNC(=O)[C@H](CC(C)C)N(C)C(=O)[C@H](C(C)C)NC(=O)[C@H](COC(C)(C)C)NC(=O)[C@H](CC(C)C)N(C)C(=O)[C@@H](C(C)C)NC(=O)C[C@@H](C)N(C)C1=O [pd068] (cyclo([Abu][NMedβ3hAla][dV][NMeL]S(tBu)V[NMeL]G[NMeT][NMeF][NMeAbu][NMeV][NMeA][NMeV]))	0.27 10^-6 cm/sec	0.27 ×10⁻⁶ cm/s	15.7 µL/min/mg	12.5 µL/min/mg Protein
CC[C@@H]1NC(=O)[C@H](Cc2ccccc2)N(C)C(=O)[C@H](C)N(C)C(=O)[C@H](CC(C)C)N(C)C(=O)[C@H](CC(C)C)NC(=O)CCCN(C)C(=O)C[C@@H](C(=O)N2CCCCC2)NC(=O)[C@H](CC(C)C)N(C)C(=O)[C@H](C)N(C)C(=O)[C@H]([C@@H](C)O)NC(=O)[C@H](CC(C)C)N(C)C(=O)[C@H](COC(C)(C)C)NC(=O)[C@H](Cc2ccccc2)N(C)C1=O [pd109] ([NMeGABA]L[NMeL][NMeA][NMeF][Abu][NMeF]S(tBu)[NMeL]T[NMeA][NMeL]D-Piperidide; lactam N-13)	0.83 10^-6 cm/sec	0.83 ×10⁻⁶ cm/s	40.6 µL/min/mg	30.3 µL/min/mg Protein
CC[C@@H]1NC(=O)[C@H](Cc2ccccc2)N(C)C(=O)[C@@H]2CCCN2C(=O)[C@H](CC(C)C)N(C)C(=O)[C@H](C(C)C)NC(=O)[C@H](CC(C)C)N(C)C(=O)[C@H]([C@@H](C)O)NC(=O)[C@H](Cc2ccccc2)N(C)C(=O)CN(C)C(=O)C[C@@H](C)N(C)C(=O)[C@H](C(C)C)NC(=O)[C@H](CC)N(C)C(=O)[C@H](C)N(C)C1=O [pd149] (cyclo([Abu][NMeA][NMeAbu]V[NMedβ3hAla][Sar][NMeF]T[NMeL]V[NMeL]P[NMeF]))	0.20 10^-6 cm/sec	0.2 ×10⁻⁶ cm/s	10.8 µL/min/mg	1.5 µL/min/mg Protein
CC[C@H]1C(=O)N[C@@H](COC(C)(C)C)C(=O)N(C)[C@@H](Cc2ccccc2)C(=O)N(C)[C@@H](C(C)C)C(=O)N[C@H](C)CC(=O)N(C)[C@H](C)C(=O)N(C)[C@@H](CC(C)C)C(=O)N(C)[C@@H](C(C)C)C(=O)N2CCC[C@H]2C(=O)N[C@@H](C(C)C)C(=O)N(C)[C@@H](Cc2ccccc2)C(=O)N[C@@H]([C@@H](C)O)C(=O)N(C)[C@@H](CC(C)C)C(=O)N(C)[C@@H](C)C(=O)N1C [pd058] (cyclo([NMeA][NMeAbu]S(tBu)[NMeF][NMeV][d(β3hA)][dNMeA][NMeL][NMeV]PV[NMeF]T[NMeL]))	0.72 10^-6 cm/sec	0.72 ×10⁻⁶ cm/s	16.3 µL/min/mg	14.8 µL/min/mg Protein
CC[C@H](C)[C@H]1C(=O)N[C@@H](Cc2ccccc2)C(=O)N2CCC[C@H]2C(=O)N(C)[C@@H](CC(C)C)C(=O)N[C@@H](COC(C)(C)C)C(=O)N(C)[C@@H](Cc2ccccc2)C(=O)N[C@@H]([C@@H](C)O)C(=O)N(C)[C@@H](CC)C(=O)N2CCC[C@H]2C(=O)N(C)[C@@H](CC(C)C)C(=O)N[C@H](C(=O)N2CCCCC2)CC(=O)N(C)CCCC(=O)N(C)[C@@H](CC(C)C)C(=O)N1C [pd118] ([NMeGABA][NMeL][NMeI]FP[NMeL]S(tBu)[NMeF]T[NMeAbu]P[NMeL]D-Piperidide; lactam N-13)	0.46 10^-6 cm/sec	0.46 ×10⁻⁶ cm/s	31.2 µL/min/mg	19.8 µL/min/mg Protein
